Measurements from ChEMBL document CHEMBL1140088, “N9-substituted 2,4-diaminoquinazolines: synthesis and biological evaluation of lipophilic inhibitors of pneumocystis carinii and toxoplasma gondii dihydrofolate reductase” (J Med Chem, 2008).

Assays:
Dihydrofolate reductase [1] = molecular target: T1, Dihydrofolate reductase (Pneumocystis carinii, UniProt P16184)
T1 sequence (P16184 whole entry): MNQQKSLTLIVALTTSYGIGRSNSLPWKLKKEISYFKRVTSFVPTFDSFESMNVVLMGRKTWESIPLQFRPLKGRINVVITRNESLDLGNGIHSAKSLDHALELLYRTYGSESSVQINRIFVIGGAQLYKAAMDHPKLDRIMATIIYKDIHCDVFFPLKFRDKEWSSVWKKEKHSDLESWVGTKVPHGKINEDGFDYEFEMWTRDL
Description: Inhibition of Pneumocystis carinii dihydrofolate reductase

Dihydrofolate reductase [2] = molecular target: T2, Dihydrofolate reductase (Rattus norvegicus, UniProt Q920D2)
T2 sequence (Q920D2 whole entry): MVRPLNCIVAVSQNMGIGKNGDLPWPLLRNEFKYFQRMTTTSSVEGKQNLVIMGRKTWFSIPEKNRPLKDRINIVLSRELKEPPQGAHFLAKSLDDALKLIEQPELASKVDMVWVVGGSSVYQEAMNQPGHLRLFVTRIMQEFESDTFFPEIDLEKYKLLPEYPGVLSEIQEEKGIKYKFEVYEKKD
Description: Inhibition of rat liver dihydrofolate reductase

Dihydrofolate reductase [3] = molecular target: T3, Dihydrofolate reductase (Mycobacterium avium, UniProt O30463); test: Inhibition of Mycobacterium avium dihydrofolate reductase
T3 sequence (O30463 whole entry): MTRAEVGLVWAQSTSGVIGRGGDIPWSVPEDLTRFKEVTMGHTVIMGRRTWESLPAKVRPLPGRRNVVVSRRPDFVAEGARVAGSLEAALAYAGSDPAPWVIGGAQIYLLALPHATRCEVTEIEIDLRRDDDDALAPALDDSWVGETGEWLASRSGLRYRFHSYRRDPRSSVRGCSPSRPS

[4] = molecular target: T4, Bifunctional dihydrofolate reductase-thymidylate synthase (Toxoplasma gondii, UniProt Q07422)
T4 sequence (Q07422 whole entry): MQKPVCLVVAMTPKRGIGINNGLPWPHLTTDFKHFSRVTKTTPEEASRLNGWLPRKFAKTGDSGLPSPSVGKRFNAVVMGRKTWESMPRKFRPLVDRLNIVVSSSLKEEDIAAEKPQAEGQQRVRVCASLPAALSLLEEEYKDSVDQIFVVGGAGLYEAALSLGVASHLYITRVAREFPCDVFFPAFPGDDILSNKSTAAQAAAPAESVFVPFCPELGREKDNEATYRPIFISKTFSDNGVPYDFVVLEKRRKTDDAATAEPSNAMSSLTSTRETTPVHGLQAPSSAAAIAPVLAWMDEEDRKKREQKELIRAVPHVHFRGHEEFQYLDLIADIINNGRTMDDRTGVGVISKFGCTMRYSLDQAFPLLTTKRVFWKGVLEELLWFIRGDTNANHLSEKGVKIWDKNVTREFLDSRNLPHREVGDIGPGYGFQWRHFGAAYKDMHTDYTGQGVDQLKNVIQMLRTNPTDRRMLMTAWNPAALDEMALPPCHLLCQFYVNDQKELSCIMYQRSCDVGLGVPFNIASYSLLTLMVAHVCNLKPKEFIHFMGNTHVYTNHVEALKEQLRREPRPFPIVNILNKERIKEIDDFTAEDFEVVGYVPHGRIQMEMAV
Description: Inhibition of Toxoplasma gondii dihydrofolate reductase

CCN(Cc1ccc2ccccc2c1)c1ccc2nc(N)nc(N)c2c1
IC50 (Dihydrofolate reductase [1]): 7.2 nM | IC50 (Dihydrofolate reductase [2]): 14.5 nM | IC50 (Dihydrofolate reductase [3]): 2.3 nM | IC50 [4]: 12 nM

CCN(Cc1cc(OC)ccc1OC)c1ccc2nc(N)nc(N)c2c1
IC50 (Dihydrofolate reductase [1]): 9.9 nM | IC50 (Dihydrofolate reductase [2]): 4.8 nM | IC50 (Dihydrofolate reductase [3]): 0.98 nM | IC50 [4]: 3.7 nM

CCN(Cc1cc(Cl)cc(Cl)c1Cl)c1ccc2nc(N)nc(N)c2c1
IC50 (Dihydrofolate reductase [1]): 6.9 nM | IC50 (Dihydrofolate reductase [2]): 19 nM | IC50 (Dihydrofolate reductase [3]): 14 nM | IC50 [4]: 19 nM

CCN(Cc1cccc2ccccc12)c1ccc2nc(N)nc(N)c2c1
IC50 (Dihydrofolate reductase [1]): 2.5 nM | IC50 (Dihydrofolate reductase [2]): 6.5 nM | IC50 (Dihydrofolate reductase [3]): 2.9 nM | IC50 [4]: 7.8 nM

CCN(Cc1ccccc1)c1ccc2nc(N)nc(N)c2c1
IC50 (Dihydrofolate reductase [1]): 21 nM | IC50 (Dihydrofolate reductase [2]): 4.1 nM | IC50 [4]: 3.6 nM

CCCN(Cc1cc(OC)ccc1OC)c1ccc2nc(N)nc(N)c2c1
IC50 (Dihydrofolate reductase [1]): 38 nM | IC50 (Dihydrofolate reductase [2]): 5.3 nM | IC50 (Dihydrofolate reductase [3]): 3.3 nM | IC50 [4]: 9.5 nM
